Series [1] has as its target T1, protein from Thermoanaerobacter italicus (clade 1) (Thermoanaerobacter thermocopriae, UniProt D3T426).
T1 sequence (D3T426 1-453): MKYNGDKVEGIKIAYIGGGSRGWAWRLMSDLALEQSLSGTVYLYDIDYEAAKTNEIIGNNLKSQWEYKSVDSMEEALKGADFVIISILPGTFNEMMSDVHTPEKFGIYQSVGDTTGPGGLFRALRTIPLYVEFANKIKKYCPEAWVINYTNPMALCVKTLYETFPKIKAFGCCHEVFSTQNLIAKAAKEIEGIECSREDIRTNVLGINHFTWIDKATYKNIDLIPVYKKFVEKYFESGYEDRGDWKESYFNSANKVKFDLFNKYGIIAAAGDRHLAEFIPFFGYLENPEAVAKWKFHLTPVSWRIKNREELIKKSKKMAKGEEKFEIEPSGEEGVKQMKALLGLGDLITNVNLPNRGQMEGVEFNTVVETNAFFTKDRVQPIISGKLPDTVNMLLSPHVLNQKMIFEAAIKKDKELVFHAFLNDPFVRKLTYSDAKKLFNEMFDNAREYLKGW
The experiment in a line: colorimetric assay of α-galacturonidase activity. It counts as biochemical. Particulars: cofactors NAD+, Mn2+, DTT as for GH4 enzymes.

The target in series [2] is T2, Clostridium phytofermentans Cphy3396 (clade 3) (Lachnoclostridium phytofermentans, UniProt A9KTB9).
T2 sequence (A9KTB9 1-466): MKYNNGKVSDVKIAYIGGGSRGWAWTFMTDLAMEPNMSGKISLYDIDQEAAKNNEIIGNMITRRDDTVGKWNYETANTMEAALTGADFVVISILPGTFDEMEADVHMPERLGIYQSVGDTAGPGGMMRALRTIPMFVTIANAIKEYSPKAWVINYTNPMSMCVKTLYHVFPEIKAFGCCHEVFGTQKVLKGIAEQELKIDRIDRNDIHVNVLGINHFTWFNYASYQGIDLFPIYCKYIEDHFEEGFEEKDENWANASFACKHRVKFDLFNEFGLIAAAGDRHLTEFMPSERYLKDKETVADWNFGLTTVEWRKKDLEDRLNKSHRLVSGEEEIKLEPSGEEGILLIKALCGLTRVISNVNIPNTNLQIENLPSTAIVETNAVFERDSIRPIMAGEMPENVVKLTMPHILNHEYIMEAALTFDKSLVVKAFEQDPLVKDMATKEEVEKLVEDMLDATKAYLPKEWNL
The experiment in a line: colorimetric assay of α-galacturonidase activity. The format is biochemical. Particulars: cofactors NAD+, Mn2+, DTT as for GH4 enzymes.

Substrate in series [3]: O=C(O)[C@H]1O[C@H](Oc2ccc([N+](=O)[O-])cc2)[C@H](O)[C@@H](O)[C@H]1O
The experiment in a line: discontinuous colorimetric assay, p-nitrophenol release. The format is biochemical, Bacillus subtilis. Particulars: 25 mM Tris-HCl pH 7.5, 0.1 mM NAD+, 1 mM MnCl2, 5 mM DTT, ~35-38 °C.

Turning to `O=C(O)[C@H]1O[C@H](Oc2ccc([N+](=O)[O-])cc2)[C@H](O)[C@@H](O)[C@H]1O` [pNPαGalUA], the “colorimetric assay of α-galacturonidase activity” value in series [1] and in series [2] was “pNPαGalUA served as substrate in all assays of protein activity” in each case.

B1: LplD (LplDhis6) (Bacillus subtilis subsp. subtilis str. 168) (protein)
chain: MFHISTLDQIKIAYIGGGSQGWARSLMSDLSIDERMSGTVALYDLDFEAAQKNEVIGNHSGNGRWRYEAVSTLKKALSAADIVIISILPGSLDDMEVDVHLPERCGIYQSVGDTVGPGGIIRGLRAVPIFAEIARAIRDYAPESWVINYTNPMSVCTRVLYKVFPGIKAIGCCHEVFGTQKLLAEMVTERLGIEVPRREDIRVNVLGINHFTWITKASYRHIDLLPIFREFSAHYGESGYELEGECWRDSVFCSAHRVAFDLFETYGAIPAAGDRHLAEFLPGPYLKQPEVWKFHLTPISFRKQDRAEKRQETERLIVQQRGVAEKASGEEGVNIIAALLGLGELVTNVNMPNQGQVLNLPIQAIVETNAFITRNRVQPILSGALPKGVEMLAARHISNQEAVADAGLTKDTGLAFQAFLNDPLVQIDRSDAEQLFNDMLQCIMQS
Broadly, the Km is the substrate concentration at which the rate is half of its maximum. Broadly, the kcat is the number of substrate molecules converted per active site and unit of time at saturation. In the case of B1, in series [3], the Km came to 0.62 ± 0.11 µM and the kcat was determined as 3.6 s⁻¹.

(Values after PMC3608401 (FEBS letters, 2013).)
